In BindingDB's records for patent US12338251 (Teligene US, 2025) one finds IC50 data, which are given here for one compound.

The data set deals with Cytochrome P450 3A4 (Homo sapiens, UniProt P08684). In words: CYP Inhibition Assay. The source says:
The final concentrations of DMSO and acetonitrile were equal to or less than 0.1%.

Cytochrome P450 3A4, sequence (P08684 whole entry): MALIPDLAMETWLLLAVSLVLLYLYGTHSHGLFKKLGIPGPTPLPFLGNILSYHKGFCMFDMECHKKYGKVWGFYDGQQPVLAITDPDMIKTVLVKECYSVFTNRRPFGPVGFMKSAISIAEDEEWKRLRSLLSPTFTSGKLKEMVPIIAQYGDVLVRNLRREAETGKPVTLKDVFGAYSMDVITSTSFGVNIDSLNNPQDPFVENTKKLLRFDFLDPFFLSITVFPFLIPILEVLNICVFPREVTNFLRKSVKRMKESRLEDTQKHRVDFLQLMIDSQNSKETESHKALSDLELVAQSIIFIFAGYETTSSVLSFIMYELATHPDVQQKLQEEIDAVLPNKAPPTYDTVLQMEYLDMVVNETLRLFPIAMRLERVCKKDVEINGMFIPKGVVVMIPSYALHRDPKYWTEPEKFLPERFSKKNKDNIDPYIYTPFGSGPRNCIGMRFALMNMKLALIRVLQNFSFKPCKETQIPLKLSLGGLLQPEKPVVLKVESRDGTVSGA

Turning to `CC(=O)CCC(=O)Nc1ncc2cc1O[C@H](C)c1cc(F)ccc1C(=O)N(C)Cc1nn(C)c(C#N)c1-2` [US12338251, Compound 3], the concentration for half-maximal inhibition (IC50) came to 279 µM.

As usually defined, the IC50 is the midpoint of a concentration-inhibition curve. The low end stands for greater potency in that assay, the high end for weaker potency in that assay.
